From PubChem BioAssay (NCI)
Values joined by “and” are separate entries in the source; they are usually repeats but may differ in a detail not shown here. Identical values can stand only once.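 1) Cells in 96-well plates. 2) Compound, 48 h, 5 concentrations. 3) Linear interpolation between surrounding doses. 4) Unreached endpoint = highest concentration. Here, GI50 denotes the concentration required for 50% inhibition of growth. TGI: total growth inhibition.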

Key:
Assay in all cases: DTP human tumour cell line panel, 48 h
HCC-2998 colon = test system: HCC-2998 colon
HCT-116 colon = test system: HCT-116 colon
HCT-15 colon = test system: HCT-15 colon
HS 578T breast = test system: HS 578T breast
M14 melanoma = test system: M14 melanoma
MALME-3M melanoma = test system: MALME-3M melanoma
NCI-H226 lung = test system: NCI-H226 lung
RXF 393 renal = test system: RXF 393 renal
SK-MEL-28 melanoma = test system: SK-MEL-28 melanoma
UACC-257 melanoma = test system: UACC-257 melanoma

Row | SMILES | GI50 (HCC-2998 colon) | TGI (HCC-2998 colon) | GI50 (HCT-116 colon) | TGI (HCT-116 colon) | GI50 (HCT-15 colon) | TGI (HCT-15 colon) | GI50 (HS 578T breast) | TGI (HS 578T breast) | GI50 (M14 melanoma) | TGI (M14 melanoma) | GI50 (MALME-3M melanoma) | TGI (MALME-3M melanoma) | GI50 (NCI-H226 lung) | TGI (NCI-H226 lung) | GI50 (RXF 393 renal) | TGI (RXF 393 renal) | GI50 (SK-MEL-28 melanoma) | TGI (SK-MEL-28 melanoma) | GI50 (UACC-257 melanoma) | TGI (UACC-257 melanoma)
1 | COc1cccc(C2=C(c3cn(C)c4cc(F)ccc34)C(=O)NC2=O)c1 | > 25 µM | > 25 µM | 8.59 µM | > 25 µM | 12.7 µM | > 25 µM | > 24 µM | > 25 µM | 24.6 µM | > 25 µM | > 18 µM | > 25 µM | > 18.8 µM | > 25 µM | 8.79 µM | > 25 µM | > 25 µM | > 25 µM | > 25 µM | > 25 µM
2 | CC(c1ccccc1)[C@@H](C(=O)Nc1ccc(I)cc1F)N1C(=O)N[C@H](c2ccc(OC[C@H](O)CO)cc2)C1=O (stereo not given in full) | 0.445 µM | > 25 µM | 1.12 µM | > 25 µM | 11.4 µM | > 25 µM | 16.3 µM | > 25 µM | 0.0707 µM | 5.74 µM | 0.0025 µM | 0.0856 µM | 14.5 µM | > 25 µM | 4.2 µM | > 22.6 µM | 0.026 µM | > 25 µM | 0.052 µM | 0.892 µM
3 | CN(C)C=NC1CCC(C(C)(C)C)CC1 (stereo not given) |  | 27.9 µM |  | 31.9 µM |  | 32.8 µM |  | 42 µM |  | 33.6 µM |  | 34.9 µM |  | 41.3 µM |  | 45.6 µM |  | 29.4 µM |  | 29.1 µM
4 | CCCCCCCCCC(CCCC(O)CC(=O)O)OC1OC(COC2OC(C)C(OC(C)=O)C(O)C2O)C(O)C(O)C1OC1OC(CO)C(O)C(O)C1OC1OC(C)C(OC(=O)CC(C)C)C(O)C1O (stereo not given) | > 35 µM | > 35 µM | > 35 µM | > 35 µM | > 35 µM | > 35 µM | > 35 µM | > 35 µM | > 35 µM | > 35 µM | > 35 µM | > 35 µM | > 35 µM | > 35 µM | > 35 µM | > 35 µM | > 35 µM | > 35 µM | > 35 µM | > 35 µM
5 | COc1ccc(C(=O)O[C@H]2[C@H](O[C@H]3[C@@H](O)COC(O[C@H]4C[C@H]5[C@@H]6CC=C7C[C@@H](O)CC[C@]7(C)[C@H]6CC[C@]5(C)[C@H]4[C@H](C)C(=O)CCC(C)C)[C@@H]3OC(C)=O)OC[C@@H](O)[C@@H]2O)c(C)c1 (stereo not given in full) | 4.1 µM | 25.2 µM | < 0.01 µM | 15.8 µM | 0.0332 µM | 2.05 µM | < 0.01 µM | 0.0282 µM | < 0.01 µM | 0.0102 µM | 0.0127 µM | 11.6 µM | 0.0423 µM | 30.6 µM | < 0.01 µM | < 0.01 µM | < 0.01 µM | < 0.01 µM | 0.0196 µM | 0.0621 µM
6 | C[C@@H](NC(=O)c1ncnc(N)c1Cl)c1ncc(C(=O)Nc2cc(C(F)(F)F)c(Cl)cn2)s1 | 13.7 µM | 40.7 µM | 3.17 µM | > 68.9 µM | 21.9 µM | > 100 µM | 23.4 µM | 98.9 µM | 0.497 µM | 13.6 µM | 0.135 µM | 0.624 µM | 15.4 µM | 74.3 µM | 24.2 µM | 68.7 µM | 0.696 µM | 15.8 µM | 0.478 µM | 4.77 µM
7 | CCCCCCCCCCCCCCCCCCOc1ccccc1CC(=O)OCC[N+](CC)(CC)CC | 1.22 µM | 3.9 µM | 1.61 µM | 7.76 µM | 4.39 µM | 13.1 µM | 1.34 µM | 4.55 µM | 1.53 µM | 5.4 µM | 1.31 µM | 3.77 µM | 1.27 µM | 5.64 µM | 0.924 µM | 2.06 µM | 1.9 µM | 7.55 µM | 1.42 µM | 5.1 µM
8 | COc1cccc(/C=C/c2ccnc3ccccc23)c1OC |  | > 10 µM |  | > 10 µM |  | > 10 µM |  | > 10 µM |  | > 10 µM |  | > 10 µM |  | > 10 µM |  | > 10 µM |  | > 10 µM |  | > 10 µM
9 | Nc1cc(C(F)(F)F)c(-c2cc(N3CCOCC3)nc(N3CCOCC3)n2)cn1 | 0.85 µM and 1.12 µM | 4.14 µM and 5.45 µM | 1.21 µM and 1.12 µM | > 10 µM and 9.38 µM | 0.523 µM and 0.826 µM | > 41.1 µM | 0.313 µM and 0.522 µM | 1.55 µM and 5.2 µM | 0.669 µM and 0.644 µM | 4.04 µM and 3.88 µM | 0.325 µM and 0.369 µM | 2.53 µM and 4.95 µM | 0.839 µM and 0.592 µM | 4.42 µM and 4.6 µM | 0.561 µM and 0.65 µM | 2.83 µM and 3.26 µM | 0.555 µM and 0.536 µM | 5.14 µM and 4.38 µM | 0.59 µM and 0.417 µM | > 7.31 µM and 4.25 µM
10 | CN(C)Cc1ccc(C(C)(C)C)cc1-c1cc(C(C)(C)C)ccc1CN(C)C |  | 30.2 µM |  | > 100 µM |  | > 100 µM |  | > 100 µM |  | 41.6 µM |  | 79.6 µM |  | > 100 µM |  | > 100 µM |  | > 100 µM |  | 51.7 µM
11 | O=C(Nc1cccc(-n2cc(-c3ccncc3)c(-c3ccc(O)c(Cl)c3)n2)c1)c1cc(C(F)(F)F)cc(C(F)(F)F)c1 | 3.06 µM | > 50 µM | 2.88 µM | > 50 µM | 2.39 µM | > 50 µM | 5.19 µM | > 50 µM | 3.3 µM | > 50 µM | 9.79 µM | 41.9 µM | 10.3 µM | > 50 µM | 1.25 µM | 9.1 µM | 10.3 µM | > 50 µM | 16.1 µM | > 50 µM
12 | COc1ccc(-c2[nH]nc(N)c2-c2cc(OC)c3c(c2)OCO3)cc1 | 5.97 µM | 31.4 µM | 2.71 µM | > 100 µM | 3.69 µM | > 100 µM | 2.01 µM | 5.21 µM | 2.55 µM | 7.24 µM | 5.01 µM | > 100 µM | 8.36 µM | > 100 µM | 3.63 µM | 16.1 µM | 6.3 µM | > 100 µM | 5.77 µM | > 100 µM
13 | CCN(CC)c1ccc(C2NC(=O)c3ccccc3N2)cc1 (stereo not given) |  | 5.79 µM |  | > 100 µM |  | > 100 µM |  | > 30 µM |  | > 100 µM |  | > 100 µM |  | > 100 µM |  | > 100 µM |  | > 100 µM |  | > 100 µM
14 | O=C(/C=C/C(Cl)(Cl)Cl)Nc1ccc(Cl)cc1 |  | 14.5 µM |  | 17.6 µM |  | 11.4 µM |  | 54.3 µM |  | 11.7 µM |  | 18.9 µM |  | 36.6 µM |  | 6.62 µM |  | 35.1 µM |  | 35.7 µM
